Results reported in PubChem BioAssay (NCI).
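Results reflect a 48-hour exposure of cells in 96-well plates to compound at five concentrations. GI50 marks 50% less growth. TGI: concentration producing complete growth inhibition.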

Columns and labels:
Assay in all cases: NCI tumour cell line growth inhibition, 48 h
[1] = test system: MOLT-4 leukemia
[2] = test system: HCC-2998 colon
[3] = test system: MDA-MB-435
[4] = test system: OVCAR-3 ovarian
[5] = test system: SK-OV-3 ovarian
[6] = test system: SF-539 CNS
[7] = test system: OVCAR-5 ovarian
[8] = test system: MDA-MB-231 breast
[9] = test system: LOX IMVI melanoma
[10] = test system: M14 melanoma
[11] = test system: PC-3 prostate
[12] = test system: A498 renal
[13] = test system: HCT-15 colon
[14] = test system: MCF7 breast
[15] = test system: DU-145 prostate
[16] = test system: HOP-92 NSCLC
[17] = test system: MALME-3M melanoma
[18] = test system: UACC-62 melanoma
[19] = test system: HT29 colon
[20] = test system: TK-10 renal
[21] = test system: OVCAR-8 ovarian
[22] = test system: A549 NSCLC
[23] = test system: RXF 393 renal
[24] = test system: NCI/ADR-RES ovarian
[25] = test system: IGROV1 ovarian
[26] = test system: SF-295 CNS

`COc1cc(-c2ccc(-c3ccc(C(=N)N)cc3)s2)cc(OC)c1OC` gave a GI50 [1] of 2.2 µM, a TGI [1] of 6.15 µM and a GI50 [2] of 1.79 µM. For the same molecule, the TGI [2] was 3.24 µM, the GI50 [3] was 1.57 µM and the TGI [3] was 3.01 µM. It also gave a GI50 [4] of 2.01 µM, a TGI [4] of 3.87 µM and a GI50 [5] of 2.45 µM. The TGI [5] was 6.65 µM, the GI50 [6] was 1.62 µM and the TGI [6] was 3.03 µM. For the same molecule, the GI50 [7] was 3.46 µM, the TGI [7] was 13.8 µM and the GI50 [8] was 1.62 µM. For the same molecule, the TGI [8] was 3.26 µM, the GI50 [9] was 1.72 µM and the TGI [9] was 3.1 µM. The GI50 [10] was 1.62 µM, the TGI [10] was 3.36 µM and the GI50 [11] was 2.94 µM. For the same molecule, the TGI [11] was 11.2 µM, the GI50 [12] was 0.215 µM and the TGI [12] was 3.96 µM. For the same molecule, the GI50 [13] was 2.25 µM, the TGI [13] was 5.29 µM and the GI50 [14] was 1.65 µM. It also gave a TGI [14] of 4.36 µM, a GI50 [15] of 2.41 µM and a TGI [15] of 6.09 µM. The GI50 [16] was 1.29 µM, the TGI [16] was 3.72 µM and the GI50 [17] was 1.46 µM. It also gave a TGI [17] of 2.9 µM, a GI50 [18] of 2.77 µM and a TGI [18] of 10.3 µM. The GI50 [19] was 1.5 µM, the TGI [19] was 5.56 µM and the GI50 [20] was 2.05 µM. The TGI [20] was 4.02 µM, the GI50 [21] was 2.34 µM and the TGI [21] was 5.87 µM. The GI50 [22] was 3.63 µM, the TGI [22] was 14.7 µM and the GI50 [23] was 2.1 µM. It also gave a TGI [23] of 4.08 µM, a GI50 [24] of 7.88 µM and a TGI [24] of 23.6 µM. For the same molecule, the GI50 [25] was 5 µM, the TGI [25] was 18.5 µM and the GI50 [26] was 1.77 µM. It also gave a TGI [26] of 3.45 µM.
